Measurements reported in US20060270614A1, “Use of chalcones for the treatment of viral disorders” (priority 2005, published 2006).
pIC50: −log10 of the molar value. Read-outs that look alike come from different tables or passages of the source.

Test system: HSV-1
Assay: HSV-1 assay: CPE inhibition in Vero cells, MTS dye uptake
Assay type: cell-based, herpes simplex virus-1
Settings: read-out: IC50 (inhibitory concentration at which the compound provides 50% CPE reduction)
Procedure: In vitro evaluation of anti-viral activity can be determined by plaque reduction as reported in J. Nat. Prod. (1990) 53, 340-344; or as described in Example 1. To pre-grown Vero cells (ATCC CCL-81 is added a virus suspension (ATCC VR-260) mixed with complete medium containing various concentrations of the test compound and the mixture is incubated until maximum cytopathic effect (CPE) is observed in the untreated virus control culture. The CPE inhibition is determined by adding a dye (MTS, (3-[4,5-dimethylthiazol-2-yl-5]-[3-carboxymethyoxyphenyl]-2-[4-sulfophenyl]-2H tetrazolium)) uptake procedure (Promega's Cell Titer Aqueous One Solution). This method measures cell viability and is based on the reduction of the tetrazolium-based MTS by mitochondrial enzymes of viable host cells to MTS formazan. The purple color of the MTS formazan is then measured spectrophotometrically. The optical density (OD) value of each culture is a function of the amount of formazan produced which is proportional to the number of viable cells.
Vero cells (ATCC CCL-81) are pregrown in 96-well tissue culture plates using Dulbecco's Modified Eagle's Medium (DMEM) supplemented with 10% heat-inactivated fetal bovine serum (FBS), L-Glutamine, penicillin, and streptomycin.
To each of the replicate cell cultures is added 50 μL of the test article solution and 50 μL of virus suspension (ATCC VR-260). The multiplicity of infection used is about 0.05 plaque-forming unit (PFU) per cell. Cell controls containing medium alone, virus-infected controls containing medium and virus, drug cytotoxicity controls containing medium and each drug concentration, reagent controls containing culture medium only (no cells), and the test article colorimetric controls containing the test article and medium (no cells) are run simultaneously with the test samples. The plates are incubated at 37° C. in a humidified atmosphere containing 5% CO2 until maximum CPE (cytopathic effect) is observed in the untreated virus control cultures (Day 5).
CPE inhibition is determined by a dye (MTS) uptake procedure (Promega's Cell Titer Aqueous One Solution). This method measures cell viability and is based on the reduction of the tetrazolium-based MTS by mitochondrial enzymes of viable host cells to MTS formazan. MTS (10 μl) is added to each of the plate wells. The plates are incubated at 37° C. for 4 hours. The purple color of the MTS formazan is then measured spectrophotometrically at 490/650 nm. The optical density (OD) value of each culture is a function of the amount of formazan produced which is proportional to the number of viable cells.
The percent of CPE (cytopathic effect) reduction of the virus-infected wells (antiviral efficacy) and the percent cell viability of uninfected drug control wells (cytotoxicity) are calculated. […]

[1] = Human alphaherpesvirus 1, 120 h, Vero cells (ATCC CCL-81), virus ATCC VR-260, about 0.05 PFU per cell, Day 5, MTS

O=C(/C=C/c1ccc(O)c(O)c1)c1ccc(O)cc1O [2′,3,4,4′-Tetrahydroxychalcone] gave a pIC50 [1] of 4.58.

Molecule COc1ccc(/C=C/C(=O)c2ccc(O)cc2O)cc1OC [2′,4′-Dihydroxy-3,4-dimethoxychalcone] has a pIC50 (Human alphaherpesvirus 1, Vero, 120 h) of 5.08.

COc1ccc(/C=C/C(=O)c2ccc(O)cc2O)cc1 [2′,4′-Dihydroxy-4-methoxychalcone] was tested, and the pIC50 [1] was 4.95.

Work on O=C1/C(=C/c2ccc(O)c(O)c2)Oc2cc(O)ccc21 [(Z)-2-(3,4-Dihydroxybenzylidene)-6-hydroxybenzofuran-3(2H)-one, reference compound] yielded a pIC50 [1] of under 4.00.
